Tests used:
CCRF-CEM = test: NCI 60 cell panel SRB screen; format: cell-based, human; conditions: for TGI / GI50 / CC50: 5 log dose; for GI50 / CC50 / activity at 10 µM: Homo sapiens; for CC50: 48 h, read-out: LC50 (the source's name); for activity at 10 µM: single dose 10 μM, read-out: percent cell growth promotion
EKVX = test: NCI 60 cell panel SRB screen; format: cell-based, human; conditions: Homo sapiens, 5 log dose; for LC50: 48 h
HOP-92 = test: NCI 60 cell panel SRB screen; format: cell-based; conditions: Homo sapiens; for GI50 / IC (TGI) / CC50: HOP-92, 5 log dose; for CC50: 48 h, read-out: LC50 (the source's name); for activity at 10 µM: HOP-92, single dose 10 μM, read-out: percent cell growth promotion
NCI-H460 = test: NCI 60 cell panel SRB screen; format: cell-based; conditions: Homo sapiens; for GI50 / IC (TGI) / LC50 (concentration causing 50% cell kill): NCI-H460, 5 log dose; for LC50 (concentration causing 50% cell kill): 48 h; for activity at 10 µM: NCI-H460, single dose 10 μM, read-out: percent cell growth promotion
SF-539 = test: NCI 60 cell panel SRB screen; format: cell-based, human; conditions: Homo sapiens, SF-539, 5 log dose; for CC50: 48 h, read-out: LC50 (the source's name)
LOX IMVI = test: NCI 60 cell panel SRB screen; format: cell-based; conditions: Homo sapiens; for CC50: 5 log dose, 48 h, read-out: LC50 (the source's name); for IC (TGI): read-out: TGI; for activity at 10 µM: read-out: percent cell growth promotion
SK-MEL-2 = test: NCI 60 cell panel SRB screen; format: cell-based; conditions: Homo sapiens; for IC (TGI): read-out: TGI; for CC50: SK-MEL-2, 5 log dose, 48 h, read-out: LC50 (the source's name)
SK-MEL-5 = test: NCI 60 cell panel SRB screen; format: cell-based; conditions: Homo sapiens; for GI50: SK-MEL-5; for IC (TGI): SK-MEL-5, read-out: TGI; for activity at 10 µM: SK-MEL-5, read-out: percent cell growth promotion; for CC50: SK-MEL-5, 5 log dose, 48 h, read-out: LC50 (the source's name)
UACC-257 = test: NCI 60 cell panel SRB screen; format: cell-based; conditions: Homo sapiens; for GI50: UACC-257; for IC (TGI): UACC-257, read-out: TGI; for activity at 10 µM: UACC-257, read-out: percent cell growth promotion
OVCAR-3 = test: NCI 60 cell panel SRB screen; format: cell-based; conditions: Homo sapiens; for GI50 / IC (TGI) / CC50: OVCAR-3, 5 log dose; for CC50: 48 h, read-out: LC50 (the source's name); for activity at 10 µM: OVCAR-3, single dose 10 μM, read-out: percent cell growth promotion
OVCAR-4 = test: NCI 60 cell panel SRB screen; format: cell-based; conditions: Homo sapiens; for GI50 / IC (TGI) / CC50: OVCAR-4, 5 log dose; for CC50: 48 h, read-out: LC50 (the source's name); for activity at 10 µM: OVCAR-4, single dose 10 μM, read-out: percent cell growth promotion
SK-OV-3 = test: NCI 60 cell panel SRB screen; format: cell-based; conditions: Homo sapiens; for GI50 / IC (TGI) / CC50: SK-OV-3, 5 log dose; for CC50: 48 h, read-out: LC50 (the source's name); for activity at 10 µM: SK-OV-3, single dose 10 μM, read-out: percent cell growth promotion
SN12C = test: NCI 60 cell panel SRB screen; format: cell-based; conditions: Homo sapiens; for GI50 / IC (TGI) / CC50: 5 log dose; for CC50: 48 h, read-out: LC50 (the source's name); for activity at 10 µM: single dose 10 μM, read-out: percent cell growth promotion
VEGFR-2 tyrosine kinase = molecular target: T1, VEGFR-2 tyrosine kinase (Homo sapiens, UniProt P35968); test: In vitro VEGFR-2 tyrosine kinase assay (BPS Bioscience); format: biochemical; conditions: read-out: VEGFR-2 % inhibition; 10 μM concentration
T1 construct: purchased BPS Bioscience 40301
Outline: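 For IC50, ADP formation after a 30-min 30 °C reaction was detected by ADP-Glo luminescence in duplicate, blank-subtracted and fitted as log inhibitor versus normalised response. The 10 µM single-dose test instead measured remaining ATP (Kinase-Glo Plus) after 40 min at 30 °C with poly(Glu,Tyr) substrate, 10 μM ATP, pH 7.4, 1% DMSO.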

full NCI 60 cell panel = test: NCI 60 cell panel SRB screen, whole panel; format: cell-based, human; conditions: Homo sapiens, 60 cell, NCI 5-log dose, full 60 cell panel; read-out: GI50 values, range over the tested cell lines

T1 sequence (P35968 20-1356): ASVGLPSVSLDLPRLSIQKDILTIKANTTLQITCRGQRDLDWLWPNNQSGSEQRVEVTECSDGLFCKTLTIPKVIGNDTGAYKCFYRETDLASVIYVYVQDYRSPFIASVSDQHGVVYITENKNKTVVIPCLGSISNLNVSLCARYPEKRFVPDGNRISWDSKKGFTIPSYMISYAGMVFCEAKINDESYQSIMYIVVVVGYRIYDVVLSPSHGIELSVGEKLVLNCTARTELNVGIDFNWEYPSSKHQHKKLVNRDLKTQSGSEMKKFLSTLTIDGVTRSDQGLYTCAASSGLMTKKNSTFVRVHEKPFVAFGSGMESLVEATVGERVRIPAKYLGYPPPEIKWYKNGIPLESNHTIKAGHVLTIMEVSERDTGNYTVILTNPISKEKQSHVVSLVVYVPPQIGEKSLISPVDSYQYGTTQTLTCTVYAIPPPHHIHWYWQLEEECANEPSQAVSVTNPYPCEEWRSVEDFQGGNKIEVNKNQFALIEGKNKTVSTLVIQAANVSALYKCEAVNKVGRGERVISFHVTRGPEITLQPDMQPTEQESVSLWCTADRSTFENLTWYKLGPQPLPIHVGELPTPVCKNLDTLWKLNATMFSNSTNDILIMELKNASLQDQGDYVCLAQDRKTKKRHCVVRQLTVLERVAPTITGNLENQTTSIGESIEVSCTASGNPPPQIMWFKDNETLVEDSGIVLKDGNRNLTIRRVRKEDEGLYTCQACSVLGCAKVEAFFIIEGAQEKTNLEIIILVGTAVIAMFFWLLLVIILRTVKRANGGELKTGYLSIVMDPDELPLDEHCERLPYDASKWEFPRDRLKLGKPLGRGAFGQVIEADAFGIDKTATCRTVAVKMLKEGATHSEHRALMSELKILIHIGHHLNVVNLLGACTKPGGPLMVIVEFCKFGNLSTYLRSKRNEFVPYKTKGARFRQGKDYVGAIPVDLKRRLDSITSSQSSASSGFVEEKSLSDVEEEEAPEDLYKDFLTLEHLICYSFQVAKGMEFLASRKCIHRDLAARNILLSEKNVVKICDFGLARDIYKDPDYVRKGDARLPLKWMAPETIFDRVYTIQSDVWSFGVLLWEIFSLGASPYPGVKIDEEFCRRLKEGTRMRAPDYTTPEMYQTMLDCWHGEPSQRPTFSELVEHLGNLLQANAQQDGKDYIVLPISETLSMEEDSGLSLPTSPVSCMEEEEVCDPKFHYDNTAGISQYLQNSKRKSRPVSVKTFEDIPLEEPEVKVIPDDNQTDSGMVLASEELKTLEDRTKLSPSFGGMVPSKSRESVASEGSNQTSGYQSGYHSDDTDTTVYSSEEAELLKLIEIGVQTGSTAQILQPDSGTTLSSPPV

O=C(Nc1ccc(Cl)cc1)Nc1ccc(Nc2nncc3ccccc23)cc1 [Compound 6b, 1–(4-Chlorophenyl)-3–(4-(phthalazin-1-ylamino)phenyl)urea]
TGI (CCRF-CEM): 17.0 µM | GI50 (CCRF-CEM): 2.57 µM | CC50 (CCRF-CEM): > 100 µM | activity at 10 µM (CCRF-CEM): 13.1% | GI50 (EKVX): 2.95 µM | IC (TGI) (EKVX): 25.3 µM | LC50 (EKVX): > 100 µM | GI50 (HOP-92): 2.55 µM | IC (TGI) (HOP-92): 7.26 µM | CC50 (HOP-92): > 100 µM | activity at 10 µM (HOP-92): 38.7% | GI50 (NCI-H460): 2.91 µM | IC (TGI) (NCI-H460): 11.9 µM | LC50 (concentration causing 50% cell kill) (NCI-H460): 56.8 µM | activity at 10 µM (NCI-H460): 9.89% | GI50 (SF-539): 2.88 µM | IC (TGI) (SF-539): 11.5 µM | CC50 (SF-539): 36.6 µM | GI50 (LOX IMVI): 0.82 µM | CC50 (LOX IMVI): 53.2 µM | IC (TGI) (LOX IMVI): 14.6 µM | activity at 10 µM (LOX IMVI): 33.6% | GI50 (SK-MEL-2): 2.7 µM | IC (TGI) (SK-MEL-2): 7.7 µM | CC50 (SK-MEL-2): 44.8 µM | GI50 (SK-MEL-5): 2.31 µM | IC (TGI) (SK-MEL-5): 6.82 µM | activity at 10 µM (SK-MEL-5): 7.12% | CC50 (SK-MEL-5): 24.7 µM | GI50 (UACC-257): 3.41 µM | IC (TGI) (UACC-257): 10.8 µM | activity at 10 µM (UACC-257): 15.3% | CC50 (UACC-257; UACC-257, 5 log dose, 48 h, read-out: LC50 (the source's name)): 33.5 µM | GI50 (OVCAR-3): 2.57 µM | IC (TGI) (OVCAR-3): 10.3 µM | CC50 (OVCAR-3): 70 µM | activity at 10 µM (OVCAR-3): 17.6% | GI50 (OVCAR-4): 1.97 µM | IC (TGI) (OVCAR-4): 8.17 µM | CC50 (OVCAR-4): > 100 µM | activity at 10 µM (OVCAR-4): 11.1% | GI50 (SK-OV-3): 3.05 µM | IC (TGI) (SK-OV-3): 17.7 µM | CC50 (SK-OV-3): > 100 µM | activity at 10 µM (SK-OV-3): 38.2% | GI50 (SN12C): 4.58 µM | IC (TGI) (SN12C): 37.2 µM | CC50 (SN12C): > 100 µM | activity at 10 µM (SN12C): 26.4% | inhibition at 10 µM (VEGFR-2 tyrosine kinase): 20% | GI50 (full NCI 60 cell panel): 0.15 to 8.41 µM

Cc1nnc(Nc2ccc(NC(=O)Nc3ccc(Cl)cc3)cc2)c2ccccc12 [Compound 6e, 1–(4-Chlorophenyl)-3–(4-(4-methylphthalazin-1-ylamino)phenyl)urea]
TGI (CCRF-CEM): 5.99 µM | GI50 (CCRF-CEM): 2.38 µM | CC50 (CCRF-CEM): > 100 µM | activity at 10 µM (CCRF-CEM): 11% | GI50 (EKVX): 3.47 µM | IC (TGI) (EKVX): 17.9 µM | LC50 (EKVX): 87.8 µM | GI50 (HOP-92): 2.56 µM | IC (TGI) (HOP-92): 6.6 µM | CC50 (HOP-92): 42 µM | activity at 10 µM (HOP-92): 4.62% | GI50 (NCI-H460): 3.46 µM | IC (TGI) (NCI-H460): 11.7 µM | LC50 (concentration causing 50% cell kill) (NCI-H460): 39.1 µM | activity at 10 µM (NCI-H460): 26.1% | GI50 (SF-539): 1.61 µM | IC (TGI) (SF-539): 3.32 µM | CC50 (SF-539): 6.83 µM | GI50 (LOX IMVI): 1.75 µM | CC50 (LOX IMVI): 6.11 µM | IC (TGI) (LOX IMVI): 3.27 µM | activity at 10 µM (LOX IMVI): -27.3% | GI50 (SK-MEL-2): 2.22 µM | IC (TGI) (SK-MEL-2): 4.59 µM | CC50 (SK-MEL-2): 9.5 µM | GI50 (SK-MEL-5): 1.85 µM | IC (TGI) (SK-MEL-5): 3.5 µM | activity at 10 µM (SK-MEL-5): 52.3% | CC50 (SK-MEL-5): 6.65 µM | GI50 (UACC-257): 2.39 µM | IC (TGI) (UACC-257): 5.3 µM | activity at 10 µM (UACC-257): 73.8% | GI50 (OVCAR-3): 1.87 µM | IC (TGI) (OVCAR-3): 3.99 µM | CC50 (OVCAR-3): 8.47 µM | activity at 10 µM (OVCAR-3): 44.4% | GI50 (OVCAR-4): 2.79 µM | IC (TGI) (OVCAR-4): 8.36 µM | CC50 (OVCAR-4): 58.2 µM | activity at 10 µM (OVCAR-4): 42.6% | GI50 (SK-OV-3): 2.61 µM | IC (TGI) (SK-OV-3): 6.59 µM | CC50 (SK-OV-3): 30.7 µM | activity at 10 µM (SK-OV-3): 66.4% | GI50 (SN12C): 2.86 µM | IC (TGI) (SN12C): 9.41 µM | CC50 (SN12C): 60.1 µM | activity at 10 µM (SN12C): 60.1% | inhibition at 10 µM (VEGFR-2 tyrosine kinase): 19% | GI50 (full NCI 60 cell panel): 0.15 to 8.41 µM

— publication PMC6691788, “Design and synthesis of phthalazine-based compounds as potent anticancer agents with potential antiangiogenic activity via VEGFR-2 inhibition” (Journal of Enzyme Inhibition and Medicinal Chemistry, 2019)
